Assays:
[1] = biological target: T1, 5-HT1A receptor (Homo sapiens, UniProt P08908); settings: background statement, qualitative; cited from earlier work
T1 sequence (P08908 1-422): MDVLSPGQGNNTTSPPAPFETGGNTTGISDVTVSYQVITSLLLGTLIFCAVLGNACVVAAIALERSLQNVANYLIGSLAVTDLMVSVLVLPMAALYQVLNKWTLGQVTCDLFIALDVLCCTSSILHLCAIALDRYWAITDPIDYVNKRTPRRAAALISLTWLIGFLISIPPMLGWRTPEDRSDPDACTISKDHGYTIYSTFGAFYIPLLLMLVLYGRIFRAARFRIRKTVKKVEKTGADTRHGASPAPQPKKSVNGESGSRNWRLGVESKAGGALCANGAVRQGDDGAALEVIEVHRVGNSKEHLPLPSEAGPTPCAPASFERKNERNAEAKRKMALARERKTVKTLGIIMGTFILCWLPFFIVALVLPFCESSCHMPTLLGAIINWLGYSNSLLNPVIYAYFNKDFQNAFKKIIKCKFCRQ

[2] = test system: 5-HT2-receptor; settings: background statement, qualitative; cited from earlier work
[3] = test system: Sexual Disorders and/or Dysfunctions; test: studies of female patients suffering from Sexual Disorders; type: in vivo; settings: free base or acceptable derivative, qualitative

## O=c1[nH]c2ccccc2n1CCN1CCN(c2cccc(C(F)(F)F)c2)CC1 [Flibanserin, 1-[2-(4-(3-trifluoromethyl-phenyl)piperazin-1-yl)ethyl]-2,3-dihydro-1H-benzimidazol-2-one]
[1]
  affinity for the 5-HT1A receptor: shows affinity
[2]
  affinity for the 5-HT2-receptor: shows affinity
[3]
  effect on Sexual Disorders and/or Dysfunctions: positive effect
